Each molecule was assayed on Puccinia recondita tritici = Puccinia triticina (PUCCRT) (assay: Fungicidal activity vs. wheat leaf rust). Settings: % disease control @ 50 ppm, wheat seedlings sprayed, inoculated the following day, severity evaluated 7-9 days later, read-out: Puccinia Rating.
Assay type: in vivo, Puccinia recondita tritici on wheat (variety Yuma)
Source text: D. Evaluation of Fungicidal Activity Vs. Leaf Rust (Causal Agent Puccinia recondita tritici=Puccinia triticina; Bayer code PUCCRT). […] Each pot contained 3-8 seedlings. These plants were sprayed until wet with the formulated test compounds. The compounds were formulated at 50 ppm in 10 vol. % acetone plus 90 vol. % Triton X water (deionized water 99.99 wt %+0.01 wt % Triton X100), giving a “formulated test compound.” Formulated test compounds were applied to plants using a turn table sprayer fitted with two opposing air atomization nozzles which delivered approximately 1500 L/ha of spray volume. On the following day, the leaves were inoculated with an aqueous spore suspension of Puccinia recondita tritici and the plants were kept in high humidity overnight to permit spores to germinate and infect the leaf. The plants were then transferred to a greenhouse until disease developed on untreated control plants. Disease severity was evaluated 7-9 days later, depending on the speed of disease development. In each case of Table 3, the Puccinia rating scale is as follows: […]

Row | Structure (SMILES) | pest or weed control at 50 ppm [%]
1 | OC(Cn1cnnn1)(c1ccc(F)cc1F)C(F)(F)c1ccc(CCCOCC(F)(F)F)cn1 (stereo not drawn) [Compound 45, 2-(2,4-Difluorophenyl)-1,1-difluoro-3-(1H-tetrazol-1-yl)-1-(5-(3-(2,2,2-trifluoroethoxy)propyl)pyridin-2-yl)propan-2-ol] | 80 to 100
2 | OC(Cn1cnnn1)(c1ccc(F)cc1F)C(F)(F)c1ccc(Cc2ccc(OC(F)(F)F)cc2)cn1 (stereo not drawn) [Compound 76, 2-(2,4-Difluorophenyl)-1,1-difluoro-3-(1H-tetrazol-1-yl)-1-(5-(4-(trifluoromethoxy)benzyl)pyridin-2-yl)propan-2-ol] | 80 to 100
3 | O=C(c1ccc(OCC(F)(F)F)cc1)c1ccc(C(F)(F)C(O)(Cn2cnnn2)c2ccc(F)cc2F)nc1 (stereo not drawn) [Compound 68, (6-(2-(2,4-Difluorophenyl)-1,1-difluoro-2-hydroxy-3-(1H-tetrazol-1-yl)propyl)pyridin-3-yl)(4-(2,2,2-trifluoroethoxy)phenyl)methanone] | 80 to 100
4 | OC(Cn1cnnn1)(c1ccc(Cl)cc1F)C(F)(F)c1ccc(-n2nccn2)cn1 (stereo not drawn) [Compound 28, 1-(5-(2H-1,2,3-Triazol-2-yl)pyridin-2-yl)-2-(4-chloro-2-fluorophenyl)-1,1-difluoro-3-(1H-tetrazol-1-yl)propan-2-ol] | 80 to 100
5 | OC(Cn1cnnn1)(c1ccc(F)cc1F)C(F)(F)c1ccc(Cc2ccc(C(F)(F)F)cc2)cn1 (stereo not drawn) [Compound 73, 2-(2,4-Difluorophenyl)-1,1-difluoro-3-(1H-tetrazol-1-yl)-1-(5-(4-(trifluoromethyl)benzyl)pyridin-2-yl)propan-2-ol] | 80 to 100
6 | O=C(c1ccc(F)cc1)c1ccc(C(F)(F)C(O)(Cn2cnnn2)c2ccc(F)cc2F)nc1 (stereo not drawn) [Compound 69, (6-(2-(2,4-Difluorophenyl)-1,1-difluoro-2-hydroxy-3-(1H-tetrazol-1-yl)propyl)pyridin-3-yl)(4-fluorophenyl)methanone] | 80 to 100
7 | N#Cc1ccc(OCc2ccc(C(F)(F)C(O)(Cn3cnnn3)c3ccc(F)cc3F)nc2)c(F)c1 (stereo not drawn) [Compound 88, 4-((6-(2-(2,4-difluorophenyl)-1,1-difluoro-2-hydroxy-3-(1H-tetrazol-1-yl)propyl)pyridin-3-yl)methoxy)-3-fluorobenzonitrile] | 80 to 100
8 | OC(Cn1cnnn1)(c1ccc(F)cc1F)C(F)(F)c1ccc(COC(F)F)cn1 (stereo not drawn) [Compound 92, 1-(5-((difluoromethoxy)methyl)pyridin-2-yl)-2-(2,4-difluorophenyl)-1,1-difluoro-3-(1H-tetrazol-1-yl)propan-2-ol] | 80 to 100
9 | OC(Cn1cnnn1)(c1ccc(F)cc1F)C(F)(F)c1ccc(Cc2ccc(Cl)cc2)cn1 (stereo not drawn) [Compound 77, 1-(5-(4-Chlorobenzyl)pyridin-2-yl)-2-(2,4-difluorophenyl)-1,1-difluoro-3-(1H-tetrazol-1-yl)propan-2-ol] | 80 to 100
10 | Cc1ccc(C(F)(F)C(O)(Cn2cnnn2)c2ccc(F)cc2F)nc1 (stereo not drawn) [Compound 25, 2-(2,4-Difluorophenyl)-1,1-difluoro-1-(5-methylpyridin-2-yl)-3-(1H-tetrazol-1-yl)propan-2-ol] | 80 to 100
11 | CC(C)OC/C=C/c1ccc(C(F)(F)C(O)(Cn2cnnn2)c2ccc(F)cc2F)nc1 (stereo not drawn) [Compound 54, (E)-2-(2,4-Difluorophenyl)-1,1-difluoro-1-(5-(3-isopropoxyprop-1-en-1-yl)pyridin-2-yl)-3-(1H-tetrazol-1-yl)propan-2-ol] | < 40
12 | COc1ccc(-c2ccc(C(F)(F)C(O)(Cn3cnnn3)c3ccc(F)cc3F)nc2)s1 (stereo not drawn) [Compound 32, 2-(2,4-Difluorophenyl)-1,1-difluoro-1-(5-(5-methoxythiophen-2-yl)pyridin-2-yl)-3-(1H-tetrazol-1-yl)propan-2-ol] | 40 to 59
13 | N#Cc1ccc(OCc2ccc(C(F)(F)C(O)(Cn3cnnn3)c3ccc(F)cc3F)nc2)nc1 (stereo not drawn) [Compound 98, 6-((6-(2-(2,4-difluorophenyl)-1,1-difluoro-2-hydroxy-3-(1H-tetrazol-1-yl)propyl)pyridin-3-yl)methoxy)nicotinonitrile] | 80 to 100
14 | OC(Cn1cnnn1)(c1ccc(F)cc1F)C(F)(F)c1ccc(CC(F)(F)F)cn1 (stereo not drawn) [Compound 17, 2-(2,4-Difluorophenyl)-1,1-difluoro-3-(1H-tetrazol-1-yl)-1-(5-(2,2,2-trifluoroethyl)pyridin-2-yl)propan-2-ol] | 80 to 100
15 | OC(Cn1cnnn1)(c1ccc(F)cc1F)C(F)(F)c1ccc(-c2ccc(C(F)(F)F)s2)cn1 (stereo not drawn) [Compound 34, 2-(2,4-Difluorophenyl)-1,1-difluoro-3-(1H-tetrazol-1-yl)-1-(5-(5-(trifluoromethyl)thiophen-2-yl)pyridin-2-yl)propan-2-ol] | 80 to 100
16 | OC(Cn1cnnn1)(c1ccc(F)cc1F)C(F)(F)c1ccccn1 (stereo not drawn) [2(−), 2-(2,4-Difluorophenyl)-1,1-difluoro-1-(pyridin-2-yl)-3-(1H-tetrazol-1-yl)propan-2-ol] | 80 to 100
17 | N#Cc1ccc(SCc2ccc(C(F)(F)C(O)(Cn3cnnn3)c3ccc(F)cc3F)nc2)c(F)c1 (stereo not drawn) [Compound 90, 4-(((6-(2-(2,4-difluorophenyl)-1,1-difluoro-2-hydroxy-3-(1H-tetrazol-1-yl)propyl)pyridin-3-yl)methyl)thio)-3-fluorobenzonitrile] | 40 to 59
18 | OC(Cn1cnnn1)(c1ccc(F)cc1F)C(F)(F)c1ccc(Br)cn1 (stereo not drawn) [Compound 1, 1-(5-Bromopyridin-2-yl)-2-(2,4-difluorophenyl)-1,1-difluoro-3-(1H-tetrazol-1-yl)propan-2-ol] | 80 to 100
19 | OC(Cc1cnco1)(c1ccc(F)cc1F)C(F)(F)c1ccc(Br)cn1 (stereo not drawn) [Compound 83, 1-(5-Bromopyridin-2-yl)-2-(2,4-difluorophenyl)-1,1-difluoro-3-(oxazol-5-yl)propan-2-ol] | 80 to 100
20 | CCOC/C=C/c1ccc(C(F)(F)C(O)(Cn2cnnn2)c2ccc(F)cc2F)nc1 (stereo not drawn) [Compound 51, (E)-2-(2,4-Difluorophenyl)-1-(5-(3-ethoxyprop-1-en-1-yl)pyridin-2-yl)-1,1-difluoro-3-(1H-tetrazol-1-yl)propan-2-ol] | < 40
21 | N#Cc1ccc(OCc2ccc(C(F)(F)C(O)(Cn3cnnn3)c3ccc(F)cc3F)nc2)cc1 (stereo not drawn) [Compound 79, 4-((6-(2-(2,4-Difluorophenyl)-1,1-difluoro-2-hydroxy-3-(1H-tetrazol-1-yl)propyl)pyridin-3-yl)methoxy)benzonitrile] | 80 to 100
22 | OC(Cn1cnnn1)(c1ccc(F)cc1F)C(F)(F)c1ccc(COc2ncc(C(F)(F)F)cc2Cl)cn1 (stereo not drawn) [Compound 100, 1-(5-(((3-chloro-5-(trifluoromethyl)pyridin-2-yl)oxy)methyl)pyridin-2-yl)-2-(2,4-difluorophenyl)-1,1-difluoro-3-(1H-tetrazol-1-yl)propan-2-ol] | 80 to 100
23 | OC(Cn1cnnn1)(c1ccc(F)cc1F)C(F)(F)c1ccc(-c2ccc(Cl)cn2)cn1 (stereo not drawn) [Compound 93, 1-(5-chloro-[2,3′-bipyridin]-6′-yl)-2-(2,4-difluorophenyl)-1,1-difluoro-3-(1H-tetrazol-1-yl)propan-2-ol] | 80 to 100
24 | O=C(c1ccc(C(F)(F)C(O)(Cn2cnnn2)c2ccc(F)cc2F)nc1)c1ccc(Cl)c(F)c1 (stereo not drawn) [Compound 71, (4-Chloro-3-fluorophenyl)(6-(2-(2,4-difluorophenyl)-1,1-difluoro-2-hydroxy-3-(1H-tetrazol-1-yl)propyl)pyridin-3-yl)methanone] | 80 to 100
25 | OC(Cn1cnnn1)(c1ccc(F)cc1F)C(F)(F)c1ccc(C(F)(F)c2ccc(C(F)(F)F)cc2)cn1 (stereo not drawn) [Compound 102, 1-(5-(difluoro(4-(trifluoromethyl)phenyl)methyl)pyridin-2-yl)-2-(2,4-difluorophenyl)-1,1-difluoro-3-(1H-tetrazol-1-yl)propan-2-ol] | 80 to 100
26 | OC(Cn1cnnn1)(c1ccc(Cl)cc1F)C(F)(F)c1ccc(CC(F)(F)F)cn1 (stereo not drawn) [Compound 39, 2-(4-Chloro-2-fluorophenyl)-1,1-difluoro-3-(1H-tetrazol-1-yl)-1-(5-(2,2,2-trifluoroethyl)pyridin-2-yl)propan-2-ol] | 80 to 100
27 | OC(Cn1cnnn1)(c1ccc(F)cc1F)C(F)(F)c1ccc(-c2ccc(C(F)F)s2)cn1 (stereo not drawn) [Compound 33, 1-(5-(5-(Difluoromethyl)thiophen-2-yl)pyridin-2-yl)-2-(2,4-difluorophenyl)-1,1-difluoro-3-(1H-tetrazol-1-yl)propan-2-ol] | 80 to 100
28 | OC(Cn1cnnn1)(c1ccc(F)cc1F)C(F)(F)c1ccc(-c2ccncc2)cn1 (stereo not drawn) [Compound 96, 1-([3,4′-bipyridin]-6-yl)-2-(2,4-difluorophenyl)-1,1-difluoro-3-(1H-tetrazol-1-yl)propan-2-ol] | 60 to 79
29 | CCOC/C=C\c1ccc(C(F)(F)C(O)(Cn2cnnn2)c2ccc(F)cc2F)nc1 (stereo not drawn) [Compound 52, (Z)-2-(2,4-Difluorophenyl)-1-(5-(3-ethoxyprop-1-en-1-yl)pyridin-2-yl)-1,1-difluoro-3-(1H-tetrazol-1-yl)propan-2-ol] | < 40
30 | OC(Cn1cnnn1)(c1ccc(F)cc1F)C(F)(F)c1ccc(F)cn1 (stereo not drawn) [Compound 10, 2-(2,4-Difluorophenyl)-1,1-difluoro-1-(5-fluoropyridin-2-yl)-3-(1H-tetrazol-1-yl)propan-2-ol] | 80 to 100
